Drawing on PubChem BioAssay AID1794824, this text covers EC50 for 2 compounds.

For this assay, the target named is Sodium- and chloride-dependent taurine transporter (Homo sapiens) (UniProt P31641). Kind of assay: taurine transporter SLC6A6 activation, membrane depolarization – cell-based, membrane potential dye, HEK-293, SLC6A6 overexpression, dose response (AID 1794824). The settings on record: HEK-293 SLC6A6 OE, FLIPR membrane potential dye.
Sequence of Sodium- and chloride-dependent taurine transporter (Homo sapiens) (P31641 whole entry, looked up): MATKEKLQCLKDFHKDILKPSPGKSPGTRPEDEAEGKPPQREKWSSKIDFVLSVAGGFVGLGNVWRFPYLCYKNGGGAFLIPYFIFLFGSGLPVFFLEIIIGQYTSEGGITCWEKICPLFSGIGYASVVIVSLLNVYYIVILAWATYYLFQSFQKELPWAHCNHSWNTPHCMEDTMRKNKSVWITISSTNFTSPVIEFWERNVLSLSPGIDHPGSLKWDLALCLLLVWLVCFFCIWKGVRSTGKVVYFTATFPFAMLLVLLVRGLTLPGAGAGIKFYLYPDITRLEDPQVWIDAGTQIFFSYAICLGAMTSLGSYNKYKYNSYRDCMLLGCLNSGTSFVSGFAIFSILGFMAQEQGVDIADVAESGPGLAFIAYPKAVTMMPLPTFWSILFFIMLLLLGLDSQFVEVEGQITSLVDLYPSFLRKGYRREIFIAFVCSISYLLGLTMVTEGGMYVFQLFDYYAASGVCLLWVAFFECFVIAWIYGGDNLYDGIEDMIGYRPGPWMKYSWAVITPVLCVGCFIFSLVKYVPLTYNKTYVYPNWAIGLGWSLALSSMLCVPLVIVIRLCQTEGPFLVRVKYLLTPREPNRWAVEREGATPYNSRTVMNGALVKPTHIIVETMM

Regarding `NCCS(=O)(=O)O`, the half-maximal effective concentration (EC50) (commonly the concentration at which the effect is half-maximal) was 10 µM.

For `NCCCC(=O)O`, the EC50 was 354 µM.
